Test results: patent publication US20110070270A1, “IMMUNOSTIMULATING AGENT” (priority 2008, published 2011)

Tests used:
mouse spleen cells [1] = test: IgA production upon LPS stimulation of mouse spleen cells (ELISA of culture supernatant); format: cell-based; details: for IgA concentration (amount of IgA production), mean: BALB/c mouse spleen cells, 5 days culture, supernatant; for Ability to promote IgA production upon LPS stimulation: mouse spleen cells, Student's t test, significance level 5%
Description: (§1) BALB mice (female) of 6 to 8 weeks old were purchased and fed for 1 week for habituation. A commercially available solid feed was used as a feed and tap water was used as water. In order to evaluate influences of cinacalcet and γ-glutamylvaline on antibody producing activity, a culture system using mouse spleen cells was employed. The spleen was collected from BALB-c mice (n=3). The collected spleen cells were washed and thereafter suspended in an RPMI1640 medium (10% FCS, 50 U/ml penicillin, and 50 μg/ml streptomycin). To cells adjusted to 1×10^6 per a 48 well culture plate, cinacalcet or γ-glutamylvaline (dissolved in a sterilized phosphate buffer), or a phosphate buffer as a control was added. And the cells were then stimulated with 5 μg of LPS (lipopolysaccharide, obtained from Sigma). Thereafter, the cells were cultured in a CO2 incubator at 37° C. for 5 days and the amount of IgA antibody in the supernatant was analyzed.
(§2) The amounts of IgA and IgG were measured by the ELISA method. The method for measuring IgG is shown below. 100 μl of rat anti-mouse IgG antibody (Calbiochem, 1 μg/ml in 50 mM sodium carbonate buffer, pH 8.5) solution was added to a 96 well ELISA plate and the plate was incubated at 4° C. overnight to coat each well with the anti-mouse IgG antibody. The plate was washed three times with PBST (phosphate buffered saline, 0.05% Tween 20) and subjected to a blocking treatment with 200 μl of PBS solution containing 2% BSA at 37° C. for 1 hr.
(§3) The plate was washed three times with PBST. Thereafter, 100 μl of the culture supernatant (9 fold diluted with PBST containing 1% BSA) was added and allowed to react at 37° C. for 2 hr. The plate was again washed four times with PBST. 100 μl of an alkaline phosphatase-conjugated anti-mouse IgG (rabbit) (BD Biosciences) solution diluted 2000 fold with PBST containing 1% BSA was added and allowed to react at 37° C. for 1 hour. The plate was washed six times and then colored with p-nitrophenyl phosphate. The reaction was terminated with 100 μl/well of 3 M NaOH and the absorbance at 405 nm was measured.
The measurement of IgA was carried out in accordance with the method for IgG except that a rat anti-mouse IgA antibody (BD Biosciences) was used as the immobilized antibody, a biotinylated anti-mouse IgA antibody (rat) (BD Biosciences) was used as the labeled antibody, 3,3′,5,5′-tetramethylbenzidine solution (TMB substrate-developing solution, Sigma) was used as the chromogenic substrate, termination of the coloring was carried out using 1 M sulfuric acid, and the absorbance at 450 nm was measured.
(§4) A statistical analysis was carried out by Student's t test and a significance level of 5% or less was considered as significant difference.

mouse spleen cells [2] = test: IgG production upon ConA stimulation of mouse spleen cells (ELISA of culture supernatant); format: cell-based; details: for IgG concentration (amount of IgG production), mean: BALB/c mouse spleen cells, 5 days culture, supernatant; for Ability to promote IgG production upon ConA stimulation: mouse spleen cells, Student's t test, significance level 5%
Description: as §1
In the same manner, the cells adjusted to 1×10^6 per a 48 well culture plate were, in the presence or absence of cinacalcet or γ-glutamylvaline, stimulated with 0.5 μg of ConA (concanavalin A). Thereafter, the cells were cultured in a CO2 incubator at 37° C. for 5 days and the amount of IgG antibody in the supernatant was analyzed.
as §2, §3, §4

SMILES | IgA concentration (amount of IgA production), mean (mouse spleen cells [1]; LPS stimulation + test substance 0.1 mM) [ng/mL] | Ability to promote IgA production upon LPS stimulation (mouse spleen cells [1]) | IgG concentration (amount of IgG production), mean (mouse spleen cells [2]; ConA stimulation + test substance 0.1 mM) [ng/mL] | Ability to promote IgG production upon ConA stimulation (mouse spleen cells [2]) | IgA concentration (amount of IgA production), mean (mouse spleen cells [1]; LPS stimulation + test substance 0.1 μM) [ng/mL] | IgG concentration (amount of IgG production), mean (mouse spleen cells [2]; ConA stimulation + test substance 0.1 μM) [ng/mL]
CC(C)[C@H](NC(=O)CC[C@H](N)C(=O)O)C(=O)O [γ-GluVal, γ-glutamylvaline] | 25.28 | significantly confirmed | 62.78 | significantly confirmed |  | 
C[C@@H](NCCCc1cccc(C(F)(F)F)c1)c1cccc2ccccc12 [Cinacalcet, (R)—N-(3-(3-(trifluoromethyl)phenyl)propyl)-1-(1-naphthyl)ethylamine] |  | significantly confirmed |  | significantly confirmed | 26.09 | 55.24
